The text below walks through data of patent US6936585B2, “Corticotropin releasing factor 2 receptor agonists” (priority 2002, dated 2005).

One experiment addresses T1, CRF1R (Homo sapiens, UniProt P34998).
T1 sequence (P34998 24-415): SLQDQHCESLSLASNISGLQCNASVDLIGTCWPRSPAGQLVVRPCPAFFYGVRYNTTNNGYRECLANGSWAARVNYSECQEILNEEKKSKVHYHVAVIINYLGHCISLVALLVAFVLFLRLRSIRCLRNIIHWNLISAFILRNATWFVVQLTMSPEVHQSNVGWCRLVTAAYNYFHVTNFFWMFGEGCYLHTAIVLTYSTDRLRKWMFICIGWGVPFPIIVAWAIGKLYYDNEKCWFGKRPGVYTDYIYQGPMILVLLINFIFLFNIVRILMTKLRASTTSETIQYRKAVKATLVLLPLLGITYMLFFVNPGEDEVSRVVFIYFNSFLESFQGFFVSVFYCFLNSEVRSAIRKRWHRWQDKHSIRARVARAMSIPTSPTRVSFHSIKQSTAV
Description: CRF1R agonist activation (EC50 / Emax), called comparative CRF binding. Type of experiment: cell-based. To be noted: read-out: CRF1R Emax. A digest of the protocol:
(§1)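 Read-out is Gαs-driven cAMP induction, quantified directly in lysates or through CRE-reporter gene expression, after treating CRF1R- or CRF2R-expressing cells with peptide. Vehicle-treated cells serve as the comparison.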

The target in the next experiment is T2, CRF2R (Homo sapiens, UniProt Q13324).
T2 sequence (Q13324 1-411): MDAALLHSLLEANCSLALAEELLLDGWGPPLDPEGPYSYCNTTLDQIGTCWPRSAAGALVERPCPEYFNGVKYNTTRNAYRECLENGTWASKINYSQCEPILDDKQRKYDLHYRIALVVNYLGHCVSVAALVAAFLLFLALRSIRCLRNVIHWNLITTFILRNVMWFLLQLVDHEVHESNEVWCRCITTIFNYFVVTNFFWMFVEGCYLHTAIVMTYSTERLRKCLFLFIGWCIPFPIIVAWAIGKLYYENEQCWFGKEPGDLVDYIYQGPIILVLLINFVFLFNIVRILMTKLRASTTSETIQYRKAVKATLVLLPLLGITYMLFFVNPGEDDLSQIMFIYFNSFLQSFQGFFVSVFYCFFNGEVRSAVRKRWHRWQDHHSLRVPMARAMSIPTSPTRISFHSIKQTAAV
Kind of experiment: CRF2R agonist activation (EC50 / Emax), called comparative CRF binding. In kind it is cell-based. To be noted: read-out: CRF2R Emax. The method in brief:
as §1

Peptide text beside a SMILES is read from it.

For `CC[C@H](C)[C@H](NC(=O)[C@H](C)NC(=O)[C@H](CC(N)=O)NC(=O)[C@H](CCC(N)=O)NC(=O)[C@H](CCC(=O)O)NC(=O)[C@H](C)NC(=O)[C@H](CCCNC(=N)N)NC(=O)[C@H](CCC(=O)O)NC(=O)[C@H](CCCNC(=N)N)NC(=O)[C@H](CCC(N)=O)NC(=O)[C@H](CO)NC(=O)[C@H](CCC(N)=O)NC(=O)[C@@H](NC(=O)[C@H](CCCNC(=N)N)NC(=O)[C@H](C)NC(=O)[C@H](CC(C)C)NC(=O)[C@H](CCC(=O)O)NC(=O)[C@H](CC(C)C)NC(=O)[C@H](CC(C)C)NC(=O)[C@@H](NC(=O)[C@H](CCCNC(=N)N)NC(=O)[C@H](CC(C)C)NC(=O)[C@H](CC(C)C)NC(=O)[C@H](CCC(N)=O)NC(=O)[C@H](CC(C)C)NC(=O)[C@@H]1CCCN1C(=O)[C@H](CC(C)C)NC(=O)[C@H](CC(=O)O)NC(=O)[C@@H](NC(=O)[C@H](CO)NC(=O)[C@H](CC(C)C)NC(=O)[C@H](CO)NC(=O)[C@@H]1CCCN1C(=O)[C@H](CC(N)=O)NC(=O)[C@@H](N)CC(=O)O)[C@@H](C)CC)[C@@H](C)O)[C@@H](C)O)C(=O)N[C@H](C(=O)N[C@@H](Cc1ccccc1)C(=O)N[C@@H](C)C(=O)N[C@@H](CO)C(=O)N[C@H](C(N)=O)C(C)C)[C@@H](C)CC` [compound 176] (H-DNPSLSIDLPLQLLRTLLELARTQSQRERAEQNAIIFASV-NH2; N-terminus assumed), the Emax was found to be 26.9% on CRF1R and 90.2% at CRF2R.
Take `CC[C@H](C)[C@H](NC(=O)[C@H](C)NC(=O)[C@H](CC(N)=O)NC(=O)[C@H](CCC(N)=O)NC(=O)[C@H](CCC(=O)O)NC(=O)[C@H](C)NC(=O)[C@H](CCCNC(=N)N)NC(=O)[C@H](CCC(=O)O)NC(=O)[C@H](CCCNC(=N)N)NC(=O)[C@H](CCC(N)=O)NC(=O)[C@H](CO)NC(=O)[C@H](CCC(N)=O)NC(=O)[C@@H](NC(=O)[C@H](CCCNC(=N)N)NC(=O)[C@H](C)NC(=O)[C@H](CC(C)C)NC(=O)[C@H](CCC(=O)O)NC(=O)[C@H](CC(C)C)NC(=O)[C@H](CC(C)C)NC(=O)[C@@H](NC(=O)[C@H](CCCNC(=N)N)NC(=O)[C@H](CC(C)C)NC(=O)[C@H](CC(C)C)NC(=O)[C@H](Cc1ccc(O)cc1)NC(=O)[C@H](CC(C)C)NC(=O)[C@@H]1CCCN1C(=O)[C@H](CC(C)C)NC(=O)[C@H](CC(=O)O)NC(=O)[C@@H](NC(=O)[C@H](CO)NC(=O)[C@H](CC(C)C)NC(=O)[C@H](CO)NC(=O)[C@@H]1CCCN1C(=O)[C@H](CC(N)=O)NC(=O)[C@@H](N)CC(=O)O)[C@@H](C)CC)[C@@H](C)O)[C@@H](C)O)C(=O)N[C@H](C(=O)N[C@@H](Cc1ccccc1)C(=O)N[C@@H](C)C(=O)N[C@@H](CO)C(=O)N[C@H](C(N)=O)C(C)C)[C@@H](C)CC` [compound 177] (H-DNPSLSIDLPLYLLRTLLELARTQSQRERAEQNAIIFASV-NH2; N-terminus assumed): the Emax at CRF1R came out at 69.2%; at CRF2R it was 97.7%.
